Earlier results in US20120184023A1, “Method of Preparing A Glycoside Of A Mono- Or Diacylglycerol Product From A Plant Material” (HYBEN VITAL LICENS APS, priority 2006, published 2012).

Experiments:
mononuclear leukocytes = details: reported in WO 03/043613
[1] = system: poly-morphonuclear monocytes; details: reported in WO 03/043613

CC/C=C\C/C=C\C/C=C\CCCCCCCC(=O)OCC(CO[C@@H]1O[C@H](CO)[C@H](O)[C@H](O)[C@H]1O)OC(=O)CCCCCCC/C=C\C/C=C\C/C=C\CC (stereo partly drawn) [GOPO, 3-β-D-galactopyranosyloxy-2-(octadeca-9Z,12Z,15Z-trienoyloxy) propanyloctadeca-9Z,12Z,15Z-trienoate]
chemotaxis of mononuclear leukocytes (mononuclear leukocytes): alleviating | chemiluminescence of poly-morphonuclear monocytes [1]: alleviating chemiluminescence
